Patent publication US20230303561A1, “PYRIMIDINONE DERIVATIVE, PREPARATION METHOD THEREOF AND USE THEREOF IN RESISTING MYCOBACTERIUM TUBERCULOSIS INFECTION” (INSTITUTE OF MEDICINAL BIOTECHNOLOGY, CHINESE ACADEMY OF …, priority 2020, published 2023)
Values after ≈ are worked out from the molar mass of the structure shown.

What follows are compounds tested on MTB H37Rv (assay: Bacteriostasis experiment: MIC in 96-well plate, two-fold dilution method). Details: MTB H37Rv (ATCC 27294), 7H9 medium, 37° C., about 10 days.
Assay type: cell-based, Mycobacterium tuberculosis
For `CCCSc1nc2c(c(=O)[nH]1)C(c1ccoc1)CC(=O)N2` (centres unmarked) [LSL-11-38, 2-propylmercapto-5-(furan-3-y1)-5,6-dihydropyrido[2,3-d]pyrimidin-4,7(3H,8H)-dione], the “Inhibitory activity against Mycobacterium tuberculosis, MIC, MTB H37Rv” value was 1 µg/mL. `CSc1nc2c(c(=O)[nH]1)C(c1cccc([N+](=O)[O-])c1)CC(=O)N2` (centres unmarked) [LSL-9-09, 2-methylmercapto-5-(3-nitrophenyl)-5,6-dihydropyrido[2,3-d]pyrimidin-4,7(3H,8H)-dione] was tested, and the “Inhibitory activity against Mycobacterium tuberculosis, MIC, MTB H37Rv” value was 64 µg/mL.

Same assay, conditions: MTB H37Rv, statement on Table 1 data
For `CCCSc1nc2c(c(=O)[nH]1)C(c1ccc(SC)cc1)CC(=O)N2` (centres unmarked) [LSL-11-21, 2-propylmercapto-5-(4-methylthiophenyl)-5,6-dihydropyrido[2,3-d]pyrimidin-4,7(3H,8H)-dione], the “anti-mycobacterium tuberculosis MIC compared with the positive control drug INH” value was “equivalent to that of the positive control drug INH”. `CCCSc1nc2c(c(=O)[nH]1)C(c1ccc(OCC)cc1)CC(=O)N2` (centres unmarked) [LSL-9-39, 2-propylmercapto-5-(4-ethoxyphenyl)-5,6-dihydropyrido[2,3-d]pyrimidin-4,7(3H,8H)-dione] was tested, and the “anti-mycobacterium tuberculosis MIC compared with the positive control drug INH” value was “equivalent to that of the positive control drug INH”. With `CCCSc1nc2c(c(=O)[nH]1)C(c1ccc(OC)cc1[N+](=O)[O-])CC(=O)N2` (centres unmarked) [LSL-9-41, 2-propylmercapto-5-(4-methoxy-2-nitrophenyl)-5,6-dihydropyrido[2,3-d]pyrimidin-4,7(3H,8H)-dione] the “anti-mycobacterium tuberculosis MIC compared with the positive control drug INH” value was “equivalent to that of the positive control drug INH”. For `CCCSc1nc2[nH]c(=O)cc(-c3ccc(OC)cc3)c2c(=O)[nH]1` [LSL-11-09, 2-propylmercapto-5-(4-methoxyphenyl)-pyrido[2,3-d]pyrimidin-4,7(3H,8H)-dione], the “anti-mycobacterium tuberculosis MIC compared with the positive control drug INH” value was “equivalent to that of the positive control drug INH”. For `CCCSc1nc2c(c(=O)[nH]1)C(c1ccc3ncccc3c1)CC(=O)N2` (centres unmarked) [LSL-9-36, 2-propylmercapto-5-(quinolin-6-yl)-5,6-dihydropyrido[2,3-d]pyrimidin-4,7(3H,8H)-dione], the “anti-mycobacterium tuberculosis MIC compared with the positive control drug INH” value was “equivalent to that of the positive control drug INH”.

Same assay, conditions: Mycobacterium tuberculosis, ATCC 27294 / H37Rv, 240 h, MTB H37Rv (ATCC 27294), 7H9 medium, 37° C., about 10 days; read-out: Inhibitory activity against Mycobacterium tuberculosis, MIC, MTB H37Rv
In the case of `CCCSc1nc2c(c(=O)[nH]1)C(c1ccc(Cl)c([N+](=O)[O-])c1)CC(=O)N2` (centres unmarked) [LSL-7-48, 2-propylmercapto-5-(3-nitro-4-chlorophenyl)-5,6-dihydropyrido[2,3-d]pyrimidin-4,7(3H,8H)-dione], the MIC is reported as 2 µg/mL (≈ 5.07 µM). Compound `CCCSc1nc2c(c(=O)[nH]1)C(c1ccc(OC)c(OC)c1)CC(=O)N2` (centres unmarked) [LSL-7-46, 2-propylmercapto-5-(3,4-dimethoxyphenyl)-5,6-dihydropyrido[2,3-d]pyrimidin-4,7(3H,8H)-dione] has an MIC of 8 µg/mL (≈ 21.3 µM). Work on `CCCSc1nc2c(c(=O)[nH]1)C(c1ccccn1)CC(=O)N2` (centres unmarked) [LSL-11-26, 2-propylmercapto-5-(pyridin-2-yl)-5,6-dihydropyrido[2,3-d]pyrimidin-4,7(3H,8H)-dione] yielded an MIC of 2 µg/mL (≈ 6.32 µM). With `CCCSc1nc2c(c(=O)[nH]1)C(c1ccc(SC)cc1)CC(=O)N2` (centres unmarked) [LSL-11-21, 2-propylmercapto-5-(4-methylthiophenyl)-5,6-dihydropyrido[2,3-d]pyrimidin-4,7(3H,8H)-dione] the MIC was 0.5 µg/mL (≈ 1.38 µM). `CCCCSc1nc2c(c(=O)[nH]1)C(c1ccc(OCCC)cc1)CC(=O)N2` (centres unmarked) [LSL-10-23, 2-butylmercapto-5-(4-propoxyphenyl)-5,6-dihydropyrido[2,3-d]pyrimidin-4,7(3H,8H)-dione] was tested, and the MIC was 16 µg/mL (≈ 41.3 µM). Work on `CCCSc1nc2c(c(=O)[nH]1)C(c1ccc(OC(F)(F)F)cc1)CC(=O)N2` (centres unmarked) [LSL-9-35, 2-propylmercapto-5-(4-trifluoromethoxyphenyl)-5,6-dihydropyrido[2,3-d]pyrimidin-4,7(3H,8H)-dione] yielded an MIC of 64 µg/mL (≈ 160 µM). `CCCSc1nc2c(c(=O)[nH]1)C(c1nc3ccccc3s1)CC(=O)N2` (centres unmarked) [LSL-11-18, 2-propylmercapto-5-(benzothiazol-2-yl)-5,6-dihydropyrido[2,3-d]pyrimidin-4,7(3H,8H)-dione] gave an MIC of 2 µg/mL (≈ 5.37 µM). Work on `CCCSc1nc2c(c(=O)[nH]1)C(c1ccc(OCC)cc1)CC(=O)N2` (centres unmarked) [LSL-9-39, 2-propylmercapto-5-(4-ethoxyphenyl)-5,6-dihydropyrido[2,3-d]pyrimidin-4,7(3H,8H)-dione] yielded an MIC of 0.5 µg/mL (≈ 1.39 µM). For `CCCSc1nc2c(c(=O)[nH]1)C(c1cccc(C#N)c1)CC(=O)N2` (centres unmarked) [LSL-10-02, 2-propylmercapto-5-(3-cyanophenyl)-5,6-dihydropyrido[2,3-d]pyrimidin-4,7(3H,8H)-dione], the MIC was 6 µg/mL (≈ 17.6 µM). With `CCCSc1nc2c(c(=O)[nH]1)C(c1ccc(Oc3ccccc3)cc1)CC(=O)N2` (centres unmarked) [LSL-9-32, 2-propylmercapto-5-(4-phenoxyphenyl)-5,6-dihydropyrido[2,3-d]pyrimidin-4,7(3H,8H)-dione] the MIC was > 64 µg/mL. In the case of `CCCSc1nc2c(c(=O)[nH]1)C(c1ccc(OC)cc1[N+](=O)[O-])CC(=O)N2` (centres unmarked) [LSL-9-41, 2-propylmercapto-5-(4-methoxy-2-nitrophenyl)-5,6-dihydropyrido[2,3-d]pyrimidin-4,7(3H,8H)-dione], the MIC is reported as 0.125 µg/mL (≈ 0.32 µM). Work on `CSc1nc2c(c(=O)[nH]1)C(c1ccc([N+](=O)[O-])cc1)CC(=O)N2` (centres unmarked) [LSL-7-49, 2-methylmercapto-5-(4-nitrophenyl)-5,6-dihydropyrido[2,3-d]pyrimidin-4,7(3H,8H)-dione] yielded an MIC of 64 µg/mL (≈ 193 µM). In the case of `CCCSc1nc2c(c(=O)[nH]1)C(c1ccc(OC)c([N+](=O)[O-])c1)CC(=O)N2` (centres unmarked) [LSL-9-40, 2-propylmercapto-5-(4-methoxy-3-nitrophenyl)-5,6-dihydropyrido[2,3-d]pyrimidin-4,7(3H,8H)-dione], the MIC is reported as 4 µg/mL (≈ 10.2 µM). For `CCCSc1nc2c(c(=O)[nH]1)C(c1ccc(C(=O)O)cc1)CC(=O)N2` (centres unmarked) [LSL-11-24, 2-propylmercapto-5-(4-carboxyphenyl)-5,6-dihydropyrido[2,3-d]pyrimidin-4,7(3H,8H)-dione], the MIC was 2 µg/mL (≈ 5.56 µM). For `CCCOc1ccc(C2CC(=O)Nc3nc(SC)[nH]c(=O)c32)cc1` (centres unmarked) [LSL-7-36, 2-methylmercapto-5-(4-propoxyphenyl)-5,6-dihydropyrido[2,3-d]pyrimidin-4,7(3H,8H)-dione], the MIC was 32 µg/mL (≈ 92.6 µM). For `CCCSc1nc2c(c(=O)[nH]1)C(c1ccc(OC)nc1)CC(=O)N2` (centres unmarked) [LSL-11-35, 2-propylmercapto-5-(6-methoxypyridin-3-yl)-5,6-dihydropyrido[2,3-d]pyrimidin-4,7(3H,8H)-dione], the MIC was 1 µg/mL (≈ 2.89 µM). `CCCSc1nc2c(c(=O)[nH]1)C(c1ccc(Br)c([N+](=O)[O-])c1)CC(=O)N2` (centres unmarked) [LSL-11-22, 2-propylmercapto-5-(3-nitro-4-bromophenyl)-5,6-dihydropyrido[2,3-d]pyrimidin-4,7(3H,8H)-dione] was tested, and the MIC was 1 µg/mL (≈ 2.28 µM). `CCCSc1nc2c(c(=O)[nH]1)C(c1ccc(Sc3ccccc3)cc1)CC(=O)N2` (centres unmarked) [LSL-11-19, 2-propylmercapto-5-(4-phenylthiophenyl)-5,6-dihydropyrido[2,3-d]pyrimidin-4,7(3H,8H)-dione] gave an MIC of 8 µg/mL (≈ 18.9 µM). `CCCSc1nc2[nH]c(=O)cc(-c3ccc(OC)cc3)c2c(=O)[nH]1` [LSL-11-09, 2-propylmercapto-5-(4-methoxyphenyl)-pyrido[2,3-d]pyrimidin-4,7(3H,8H)-dione] showed an MIC of 0.25 µg/mL (≈ 0.728 µM). `CCCSc1nc2c(c(=O)[nH]1)C(c1ccc3ncccc3c1)CC(=O)N2` (centres unmarked) [LSL-9-36, 2-propylmercapto-5-(quinolin-6-yl)-5,6-dihydropyrido[2,3-d]pyrimidin-4,7(3H,8H)-dione] was tested, and the MIC was 0.125 µg/mL (≈ 0.341 µM). `CCCSc1nc2c(c(=O)[nH]1)C(c1ccc(OCC(C)C)cc1)CC(=O)N2` (centres unmarked) [LSL-11-27, 2-propylmercapto-5-(4-isobutoxyphenyl)-5,6-dihydropyrido[2,3-d]pyrimidin-4,7(3H,8H)-dione] was tested, and the MIC was 1 µg/mL (≈ 2.58 µM). In the case of `C=CCSc1nc2c(c(=O)[nH]1)C(c1ccc(OC)c(OC)c1)CC(=O)N2` (centres unmarked) [LSL-9-17, 2-allylmercapto-5-(3,4-dimethoxyphenyl)-5,6-dihydropyrido[2,3-d]pyrimidin-4,7(3H,8H)-dione], the MIC is reported as 8 µg/mL (≈ 21.4 µM). `CCCSc1nc2c(c(=O)[nH]1)C(c1ccc(Cl)c(N)c1)CC(=O)N2` (centres unmarked) [LSL-9-43, 2-propylmercapto-5-(3-amino-4-chlorophenyl)-5,6-dihydropyrido[2,3-d]pyrimidin-4,7(3H,8H)-dione] showed an MIC of 4 µg/mL (≈ 11 µM). With `CCCSc1nc2c(c(=O)[nH]1)C(c1cccc([N+](=O)[O-])c1)CC(=O)N2` (centres unmarked) [LSL-9-10, 2-propylmercapto-5-(3-nitrophenyl)-5,6-dihydropyrido[2,3-d]pyrimidin-4,7(3H,8H)-dione] the MIC was 4 µg/mL (≈ 11.1 µM). `CCCOc1ccc(C2CC(=O)Nc3nc(SCCC)[nH]c(=O)c32)cc1O` (centres unmarked) [LSL-9-25, 2-propylmercapto-5-(3-hydroxy-4-propoxyphenyl)-5,6-dihydropyrido[2,3-d]pyrimidin-4,7(3H,8H)-dione] showed an MIC of 4 µg/mL (≈ 10.3 µM).
